Laboratory results taken from publication PMC8148468, “Shikimic acid protects skin cells from UV-induced senescence through activation of the NAD+-dependent deacetylase SIRT1” (Aging (Albany NY), 2021).

Columns and labels:
[1] = target: T1, FLAG-SIRT1 purified from HEK293 cells (Homo sapiens, UniProt Q96EB6); test: In vitro SIRT1 deacetylation assay; assay type: biochemical; conditions: -/+ NAD+, Shikimic acid 1 μM-10mM
T1 construct: FLAG; made in house; host or cells: HEK293 (HEK293F)
T1 sequence (Q96EB6 1-747): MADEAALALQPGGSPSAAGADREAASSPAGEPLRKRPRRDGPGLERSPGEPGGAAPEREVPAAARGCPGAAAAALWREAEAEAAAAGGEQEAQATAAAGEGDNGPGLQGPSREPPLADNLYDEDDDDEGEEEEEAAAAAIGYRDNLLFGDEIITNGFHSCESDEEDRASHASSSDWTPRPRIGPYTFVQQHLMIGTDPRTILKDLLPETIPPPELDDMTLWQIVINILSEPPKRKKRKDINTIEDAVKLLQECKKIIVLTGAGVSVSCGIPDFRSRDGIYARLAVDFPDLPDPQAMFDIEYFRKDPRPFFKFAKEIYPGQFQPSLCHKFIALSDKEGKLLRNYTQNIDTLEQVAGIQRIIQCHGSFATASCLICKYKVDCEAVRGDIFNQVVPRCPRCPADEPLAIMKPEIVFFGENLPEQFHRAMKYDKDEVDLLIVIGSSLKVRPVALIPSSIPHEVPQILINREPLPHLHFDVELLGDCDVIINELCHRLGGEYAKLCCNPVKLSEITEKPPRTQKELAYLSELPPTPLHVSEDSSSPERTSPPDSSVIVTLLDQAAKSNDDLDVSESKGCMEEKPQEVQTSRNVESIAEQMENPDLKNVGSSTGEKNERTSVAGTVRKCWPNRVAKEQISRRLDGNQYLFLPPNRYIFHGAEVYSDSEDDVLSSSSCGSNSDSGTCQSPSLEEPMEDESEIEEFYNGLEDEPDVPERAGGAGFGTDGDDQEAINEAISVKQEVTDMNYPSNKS
Experimental: Figure 3 (A) Schematic representation of the protocol for senescence induction using UVB irradiation and study of EX527 involvement in the effect of Shikimic acid. Cells were treated with or without shikimic acid -/+ EX-527 from day 1 until day 7 after seeding, irradiated with UVB on days 2 and 5 and harvested for analysis on day 7. (B) Phase-contrast (left column) and bright field (right column) microscope images of β-Gal staining showing non-irradiated cells non-treated and treated with shikimic acid (10, 25 and 50 mM), UVB-irradiated cells non-treated and treated with shikimic acid (10, 25 and 50 mM), shikimic acid (10, 25 and 50 mM) + EX-527 1 μM and EX-527 1 μM. (C) Percentage of SA-β-Gal positive cells and (D) relative HAS2 mRNA levels in non-irradiated cells non-treated and treated with Shikimic acid (10, 25 and 50 mM), UVB-irradiated cells non-treated and treated with Shikimic acid (10, 25 and 50 mM), Shikimic acid (10, 25 and 50 mM) + EX-527 1 μM and EX-527 1 μM. (E) Percentage of SA-β-Gal as in (C) of SA 25 or 50mM upon siRNA mediated downregulation of SIRT1, SIRT2 or SIRT6. siScr: scramble siRNA. […] SIRT1 activity was then evaluated by analyzing acetylation of H3K9, H4K16 and p53K382 by Western blot. […]
The in vitro SIRT1 deacetylation assay was performed as previously described. […] Deacetylation was monitored by quantification of H3K9ac/H3, H4K16ac/H4 and p53K382ac/p53 levels.

[2] = test system: HDF cells (misfolded proteins); test: FTIRM analysis, beta-sheet to alpha-helix ratio; assay type: cell-based, human; conditions: UVB-irradiated cells, SA 25 mM -/+ EX-527 1 μM
Experimental: Figure 4 (A) SRB and Trypan blue cell viability assays performed in cells treated with or without Shikimic acid (5, 10, 25 and 50 mM) for 24h. (B) Apoptosis detection using the Annexin V-FITC/PI double staining followed by flow cytometry in non-irradiated and non-treated cells, irradiated and non-treated cells and irradiated cells treated with Shikimic acid (10, 25 and 50 mM). (C) Representation and statistical analysis of the percentage of apoptotic cells in each of the conditions analyzed. (D) Cell cycle analysis using PI staining followed by flow cytometry. (E) Relative p16^INK4a mRNA levels monitored by qPCR in the indicated conditions. Student T-test, *p<0.05. (F) Immunofluorescence of γH2AX in non-irradiated and non-treated cells, irradiated and non-treated cells and irradiated cells treated with Shikimic acid (10, 25 and 50 mM). […]
FTIRM measurements were performed at the MIRAS beamline of ALBA Synchrotron using the internal (Globar®) source. […] The structure content of the amide I peak (1710-1598 cm−1) was determined by band deconvolution using Gaussian band fitting profiles (Origin 7.0 software). The position and number of peaks, which were assigned to specific types of secondary structures, were determined using the second derivative of the spectra.

O=C(O)C1=C[C@@H](O)[C@@H](O)[C@H](O)C1 [Shikimic acid]
SIRT1 deacetylation activity in vitro (H3K9ac, H4K16ac, p53K382ac) [1]: did not alter SIRT1 deacetylation activity in vitro | β-sheet/α-helix ratio (misfolded proteins) [2]: inhibited these levels well below the ratio observed in control cells
